{"source": "paper PMC11372076", "about": "“A dual inhibitor of PIP5K1C and PIKfyve prevents SARS-CoV-2 entry into cells” (Experimental & Molecular Medicine, 2024)", "format_in_all_cases": "cell-based", "key": {"[1]": {"tested_on": "SARS-CoV-2 spike protein (Spike-HexaPro)"}, "RPE1 cells [2]": {"tested_on": "RPE1 cells", "assay": "Vacuolization analysis", "experimental": "(§1) CUGAUCAAGAU G A -3 and PIKfyve#2 siRNA 5'-\n(§2) […] -3'. siRNA oligonucleotides were purchased from Genolution, Sigma- Aldrich and Integrated DNA Technologies.\n(§3) These siRNAs were transfected into the cell using lipofectamine RNAiMAX (Invitrogen, 13778150) following manufacturer ’s protocol.\n(§4) RPE1 cells were treated with UNI418 at indicated concentration for over-night.\n(§5) After that, the image was taken by EVOS M5000 (Thermo Fisher Scientific).\n(§6) RPE1 cells were treated with UNI418 at the different concentration during the time. Live cell images were taken by Lionheart LX Automated Microscope and analyzed in Gen5 (Agilent).\nRPE1 cells were treated with indicated doses of UNI418 overnight. To analyze PIP2 level by flow cytometry, trypsinized cells were fixed with 4% paraformaldehyde for 10 min at room temperature. The fixed cells were permeabilized with 0.2% PBS-T (Triton X-100) for 5min and blocked with 5% Bovine Serum Albumin (BSA), and stained with the primary antibody for 4h at 4°C. Cells were washed three times with 1% BSA-PBS and incubated with the fluorescence- conjugated secondary antibody Alexa Fluor® 488 AffiniPure Goat Anti-Mouse IgG (H+L) (Jackson ImmunoResearch,111- 545- 003) for 1h at room temperature analyzed by BD Accuri C6 Plus flow cytometer (BD Biosciences). […]"}, "RPE1 cells [3]": {"tested_on": "RPE1 cells", "assay": "PtdIns(4,5)P2 level by flow cytometry", "settings": "overnight", "experimental": "as §1, §2, §3, §4, §5, §6\nRPE1 cells were treated with indicated doses of UNI418 overnight. To analyze PIP2 level by flow cytometry, trypsinized cells were fixed with 4% paraformaldehyde for 10 min at room temperature. […] Cells were washed three times with 1% BSA-PBS and incubated with the fluorescence- conjugated secondary antibody Alexa Fluor® 488 AffiniPure Goat Anti-Mouse IgG (H+L) (Jackson ImmunoResearch,111- 545- 003) for 1h at room temperature analyzed by BD Accuri C6 Plus flow cytometer (BD Biosciences). […]\nPtdIns(4,5)P2 level was analyzed by flow cytometry. […] Significance was determined by Student’s t-test, **p < 0.01. b Representative flow cytometry graph for PIP2 level after indicated dose of […]"}, "RPE1 cells [4]": {"tested_on": "RPE1 cells", "assay": "Autophagic flux assay (LC3-II turnover with bafilomycin A1)", "settings": "1 μM, 2 h, normal growth media", "excerpt": "Fig. 2 UNI418 inhibits autophagy. a Western blot analysis of p62, LC3B-I, LC3B-II and GAPDH in the presence of UNC3230, apilimod and UNI418. b Immunofluorescence staining with LC3B (green) and p62 (red) antibodies upon treatment with UNC3230, apilimod and UNI418, and images within the white rectangular boxes are magnified on the right side. Scale bar, 20 µm. c The area of fluorescence intensity from immunofluorescence images (b) was quantified after UNC3230, apilimod and UNI418 treatments. d, e Quantification of autophagic flux under normal conditions and under HBSS-induced starvation conditions with or without UNI418 treatment. […]\nThe whole cell extracts were prepared by lysis of harvested cells with M -PER Mammalian protein extraction reagent (Thermo Fisher Scientific). The protein concentrations were determined by Bradford protein assay (Bio- Rad). […] The images were obtained and quantified by Fusion solo ChemiDoc system (Vilber).\nAutophagic flux assay was analyzed essentially as previously described1,2.\nBriefly, RPE1 cells were treated with UNI418 (0, 0.5, or 1 µM) for 2 h with/without bafilomycin A1 to inhibit lysosomal degradation under normal growth media or HBSS. […] The LC3- II bands were quantified using Fusion Solo ChemiDoc system (Vilber) and normalized to GAPDH bands. […]"}, "[5]": {"tested_on": "HEK293T cells stably expressing mCherry-GFP-LC3", "assay": "mCherry-GFP-LC3 tandem fluorescent protein quenching assay", "settings": "0.5 μM, within 6 h", "experimental": "HEK293T cells at a density of 1.6 × 10^4 cells per well in 96-well plates (Nunc) were stained with Hoechst (Cayman Chemical Company, 33342) for 10 min. The cells were washed with PBS two times and incubated with prewarmed media supplemented with 10% FBS. Cells were treated with UNI418 in prewarmed media. Images were acquired in a time-dependent manner and quantified with an ImageXpress high-content screening system (Molecular Devices, San Jose, CA, USA).\nFig. 3 UNI418 negatively affects autophagosome-lysosome fusion and endosome acidification. a Live-cell imaging of HEK293T cells stably expressing mCherry-GFP-LC3 treated with 0.5 μM UNI418 at the indicated time points; the images within the white rectangular boxes are magnified on the right side. Scale bar, 30 µm. The number (b) and area (c) of GFP-positive dots per cell were quantified by ImageXpress. d Immunofluorescence images illustrating the inhibition of endolysosomal acidification by UNI418. Vero cells were treated with the mock control or 1 µM UNC3230, apilimod or UNI418 for 1 h at 37 °C. […] The cells were analyzed by confocal microscopy using two emission wavelengths at 493–560 (green) and 590–720 nm (red) after excitation at 488 nm. […] The green-to-red fluorescence intensity ratio (e) and the area of fluorescent spots (f) were quantified. b, c, e, f The data are presented as the means ± SEMs, with a minimum of 200 spots. […]"}, "cathepsin L": {"tested_on": "cathepsin L", "assay": "Cathepsin L maturation by Western blot", "settings": "Vero cells"}}}
{"smiles": "c1ccc(-c2cc(Nc3nc(-c4ccncc4)nc4ccccc34)n[nH]2)cc1", "note": "[UNI418, N -(5-phenyl-1 H -pyrazol-3-yl)-2-(4-pyridinyl)-4-quinazolinamine]", "values": [{"measurement": "delay in generation of the mature Spike-HexaPro cleavage product", "setting": "[1]", "result": 3, "unit": "h"}, {"measurement": "vacuolization", "setting": "RPE1 cells [2]", "result": "induced vacuolization"}, {"measurement": "levels of PtdIns(4,5)P2", "setting": "RPE1 cells [3]", "result": "reduced"}, {"measurement": "autophagic flux", "setting": "RPE1 cells [4]", "result": "markedly inhibited"}, {"measurement": "number of nonacidic autophagosomes", "setting": "[5]", "result": "considerably increased"}, {"measurement": "proteolytic maturation of cathepsin L", "setting": "cathepsin L", "result": "considerably inhibited"}]}
